Data reported in article PMC6691884 (Journal of Enzyme Inhibition and Medicinal Chemistry, 2019).

target: T1, BsuCA 1 (Brucella suis, UniProt A0A0H3GDA4); details: activation constant (not association constant); activator; CO2 substrate; 10 mM Tris pH 8.4, 0.1 M Na2SO4, 25 °C; 15 min pre-incubation
T1 construct: gene BS1330_I1823
T1 sequence (A0A0H3GDA4 1-213): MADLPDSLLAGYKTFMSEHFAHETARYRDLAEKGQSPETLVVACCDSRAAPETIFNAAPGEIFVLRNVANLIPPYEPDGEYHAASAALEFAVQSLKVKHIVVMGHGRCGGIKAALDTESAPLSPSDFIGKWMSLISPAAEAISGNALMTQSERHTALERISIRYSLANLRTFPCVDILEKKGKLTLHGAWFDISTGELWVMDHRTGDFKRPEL

Row | SMILES | KA (μM)^a / BsuCA1 ^c
1 | N[C@@H](Cc1cnc[nH]1)C(=O)O [compound 1, L-His] | 1.76 µM
2 | N[C@H](Cc1ccccc1)C(=O)O [compound 4, D-Phe] | 1.21 µM
3 | N[C@@H](Cc1ccc(O)c(O)c1)C(=O)O [compound 5, L-DOPA] | 2.07 µM
4 | N[C@@H](Cc1c[nH]c2ccccc12)C(=O)O [compound 7, L-Trp] | 1.25 µM
5 | N[C@@H](Cc1ccc(O)cc1)C(=O)O [compound 9, L-Tyr] | 1.38 µM
6 | N[C@H](Cc1ccc(O)cc1)C(=O)O [compound 10, D-Tyr] | 0.95 µM
7 | Nc1ccc(C[C@H](N)C(=O)O)cc1 [compound 11, 4-H2N-L-Phe] | 1.18 µM
8 | NCCc1ccc(O)c(O)c1 [compound 13, Dopamine] | 1.54 µM
9 | NCc1ccccn1 [compound 15, 2-Pyridyl-methylamine] | 1.62 µM
10 | CNC[C@H](O)c1ccc(O)c(O)c1 [compound 19, L-Adrenaline] | 0.70 µM
11 | N[C@H](CCC(=O)O)C(=O)O [compound 23, D-Glu] | 1.39 µM

target: T2, FtuCA (Francisella tularensis, UniProt Q5NH77); details: activation constant (not association constant); activator; CO2 substrate; 10 mM Tris pH 8.4, 0.1 M Na2SO4, 25 °C; 15 min pre-incubation
T2 construct: gene cynT
T2 sequence (Q5NH77 1-228): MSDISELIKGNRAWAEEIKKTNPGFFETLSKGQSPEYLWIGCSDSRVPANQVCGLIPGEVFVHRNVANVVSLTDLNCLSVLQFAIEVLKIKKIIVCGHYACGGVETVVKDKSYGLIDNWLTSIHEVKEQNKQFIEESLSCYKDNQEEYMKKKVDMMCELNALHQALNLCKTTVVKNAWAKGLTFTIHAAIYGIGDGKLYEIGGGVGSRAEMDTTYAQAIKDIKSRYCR

Row | SMILES | KA (μM)^a / FtuCA^c
12 | N[C@@H](Cc1cnc[nH]1)C(=O)O [compound 1, L-His] | 40.7 µM
13 | N[C@H](Cc1ccc(O)c(O)c1)C(=O)O [compound 6, D-DOPA] | 44.8 µM
14 | N[C@@H](Cc1c[nH]c2ccccc12)C(=O)O [compound 7, L-Trp] | 34.1 µM
15 | N[C@H](Cc1c[nH]c2ccccc12)C(=O)O [compound 8, D-Trp] | 30.5 µM
16 | NCc1ccccn1 [compound 15, 2-Pyridyl-methylamine] | 46.3 µM
17 | NCCN1CCNCC1 [compound 17, 1-(2-Aminoethyl)-piperazine] | 51.8 µM
18 | N[C@@H](CCC(=O)O)C(=O)O [compound 22, L-Glu] | 9.13 µM
19 | NC(=O)CC[C@H](N)C(=O)O [compound 24, L-Gln] | 45.7 µM
